Experimental data as given in patent US20090176776A1, “SMALL MOLECULE INHIBITORS OF HIV-1 CAPSID ASSEMBLY” (UNIVERSITY OF ALABAMA AT BIRMINGHAM, priority 2005, published 2009).
pIC50: −log10 of the molar value.

Assays:
[1] = target: T1, recombinant HIV-1 capsid protein (CA) (Human immunodeficiency virus type 1 group M subtype B, UniProt P12493); test: Turbidity based HIV-1 capsid assembly assay; assay type: biochemical; details: initial assembly rate by turbidity; twofold dilutions over a 128 fold range; 30 μM CA, 2.25 M NaCl
T1 construct: recombinant HIV-1 capsid protein (CA); made in house
Method: The kinetics can be followed by monitoring the increase of turbidity using a spectrophotometer. The IC50 of the chemical compound tested is determined by titration. As the C-domain inhibits capsid assembly by forming CA-C-domain heterodimers, the effect of added C-terminal domain on the rate of assembly was evaluated by plotting the rate of assembly versus C-terminal domain concentration.
Soluble HIV-1 capsid protein can be triggered to assemble into tubes similar in diameter and morphology to intact cores by dilution into high iconic strength buffer. The kinetics of assembly can be followed by monitoring the increase in turbidity using a spectrophotometer (Lanham et al., J. Virol., 76:6900, 2002). This assembly assay was adapted to a 96-well, microplate format to allow for medium-throughput screening of compounds by measuring turbidity in a Nepeloskan Ascent plate reader (Thermo Electron Corp., UK). A DIVERSet™ library of 10,000 low molecular weight, “drug-like” compounds was purchased from ChemBridge Corp. (San Diego, Calif.). This library was selected for its potential bioavailability and application based on a pharmacophore diversity analysis. The average molecular weight of the compounds is 347 g/mol, the range being 200-596 g/mol. The compounds came plated in 96-well plates and solubilized in DMSO at 5 mgs/mL.
Turbidity based assay. A 1.5 μL aliquot of compound was diluted 90-fold into 50 mM Na2HPO4, […] buffer, pH 8 in an optically clear 96-well plate. The plate containing compounds and salt was read to check for compound solubility and to serve as a background reading for the assay. To initiate the assembly reaction, 15 μL of […] stock (in 50 mM Na2HPO4 pH 8) of recombinant HIV-1 capsid protein (CA), purified as described (Lanman et al., J. Virol., 76:6900, 2002), was added to each well of the 96-well plate using a multi-channel pipettor. […] Furthermore, the halftime of the assembly reaction is ˜5 minutes so reading the plate in thirds prevented loss of initial rate data. Therefore, CA was added to the first 4 lanes, the reactions followed for ten minutes, reading was paused, CA was then added to the next four lanes and the process repeated. Instrument settings are as follows: PMT gain of 500 V, lamp at 10V, and integration time of 60 ms. The data were exported to a custom designed Excel spreadsheet that allowed simultaneous plotting of kinetic curves.
Recombinant CA protein was purified as previously described and stored at 300 μM at −80° C. A turbidity based assembly assay, described above, was adapted to a 96-well, microplate format to allow for medium-throughput screening of compounds in a Nepheloskan Ascent plate reader (Thermo Electron Corp., UK). A 1.5 μL aliquot of compound or DMSO was diluted 90-fold into 50 mM Na2HPO4, 2.25 M NaCl buffer, pH 8 in an optically clear 96-well plate. To initiate the assembly reaction, 15 μL of the 300 μM stock (in 50 mM Na2HPO4 pH 8) of recombinant HIV-1 capsid protein (CA), was added to each well of the 96-well plate using a multi-channel pipettor.

[2] = MTS score (Table 1; method not described); assay type: cell-based; details: for MTS AVG 4 (No Effect): average of the MTS scores at 10, 30 and 100 μM; for MTS 10 μM: score at nominal 10 μM; for MTS 10 μM / MTS 30 μM / MTS 100 μM: 4 = No Effect; for MTS 30 μM: score at nominal 30 μM; for MTS 100 μM: score at nominal 100 μM
HIV-1YU2 = test: Anti-HIV assay (multiple round), luciferase expression in Luc-M7 cells; assay type: cell-based; details: Luc-M7 cells infected with HIV-1YU2, 6 days, Bright-Glo
Method: (§1) Anti-HIV Assays (Multiple Round). The inhibitory effects of the tested compounds on HIV-1YU2 replication were determined by the level of luciferase expression after 6 days of infection using Bright-Glo assay (Promega). An amount of 1.5×10^4 Luc-M7 (a gift from Ned Landau) cells per ml were infected with HIV-1YU2 at a multiplicity of infection (MOI) of 3. The HIV-1 infected ([…] compound) or mock-infected (0-300 μM compound) Luc-M7 cells were placed in 96-well culture plates (100 μl/well) with 100 μl of various concentrations of the compounds with 20 μg/ml DEAE Dextran in triplicate and incubated at 37° C. under 5% CO2 at 100% humidity. After 6 days, cell viability was quantified by Cell-Titer Glo assay (Promega). […] On day 5 cell viability was determined in the mock-infected cells. FIGS. 12-18 show the anti-HIV assays for the examples of chemical compounds used according to the invention. After in-vitro assay, the chemical compounds in FIGS. 12-18 were selected for screening for cell viability and toxicity. Jurkat cells assay was used as screening assay. […] After five days, GFP expression was read. Cell viability was monitored with Alamar Blue assay. Luc M7 assay was designed to measure inhibitory activity of the chemical compounds to viral replication. After infection of cells with YU2 virus, plate cells in 96-well plate in the presence of six concentration of compounds in DMSO. At day 6, the number of cells in wells were read with Cell Titer Glo kit or by counting the number of cells infected with Bright Glo kit. 293T cells assay was designed to determine the toxicity. 293T cells were transfected with NL43. After four hours, transfected cells were plated in 96-well plate in DMSO and 2 μM Indinavir. 72 hours later, viral supernatant was collected and plated on J[…].

Luc-M7 cells = test: Cell viability of Luc-M7 cells (Cell-Titer Glo); assay type: cell-based; parameters: unit: μM; details: mock-infected Luc-M7 cells, 6 days
Method: as §1

HIV-1NL43 [3] = test: Anti-HIV assay (single round), infectivity of virus produced, titered on TZM-b1 cells; assay type: cell-based; details: virus from NL43-transfected 293T cells, 72 hours; luciferase after two days; read-out: Infectivity 50%
Method: (§2) Anti-HIV Assays (Single Round). The inhibitory effect of the compounds on virus production and infectivity were determined by measuring the level of p24 produced in the presence of various concentrations of compounds from HEK-293 cells transiently transfected with pNL43 and by titering the virus on TZM-b1 cells. Briefly, 2.5×10^5 HEK-293 cells/ml were transfected with pNL43 using FuGene 6. Four hours post transfection the cells were plated in 96-well plates containing 100 μl of various concentrations of compounds (0-75 μM or 0-300 μM for mock transfected cells) in triplicate. At 72-hours post transfection virus supernatant was collected and stored at −80° C. until analysis. The level of p24 produced at each compound concentration was determined relative to the level produced in the presence of the DMSO only controls using HIV-1 p24 enzyme-linked immunosorbent assay (ELISA) (Beckman-Coulter). To determine the infectivity of the virus produced TZM-b1 cells were plated at 1×10^5 cells/ml in 100 μL in 96-well plates overnight. The next day, the media was replaced with 75 μL DMEM supplemented with 1% FBS, 1× PSG and 40 μg/ml DEAE Dextran and 25 μL of viral supernatant from the HEK-293 cells was added to each well. Three hours later 100 μL of DMEM with 7% FBS was added to each well. Two days after infection the cells were lysed and the level of luciferase expression was determined using the Bright-Glo assay.
(§3) FIGS. 12-18 show the anti-HIV assays for the examples of chemical compounds used according to the invention. After in-vitro assay, the chemical compounds in FIGS. 12-18 were selected for screening for cell viability and toxicity. Jurkat cells assay was used as screening assay. In Jurkat cells assay, JLTRG-R5 cells were used as Indicator cells and MOLT4 cells as Producer cells of NL43 and BAL virus. 96 chemical compounds were plated at seven different concentration from 75 μM to 0 μM at three-fold serial dilutions in 384 well plate. After five days, GFP expression was read. Cell viability was monitored with Alamar Blue assay. Luc M7 assay was designed to measure inhibitory activity of the chemical compounds to viral replication. After infection of cells with YU2 virus, plate cells in 96-well plate in the presence of six concentration of compounds in DMSO. At day 6, the number of cells in wells were read with Cell Titer Glo kit or by counting the number of cells infected with Bright Glo kit. 293T cells assay was designed to determine the toxicity. 293T cells were transfected with NL43. After four hours, transfected cells were plated in 96-well plate in DMSO and 2 μM Indinavir. 72 hours later, viral supernatant was collected and plated on JC53BL. Luciferase expression was measure after two days and p24 analysis was conducted with 1:1000 and 1:2000 dilutions.

HIV-1NL43 [4] = test: Anti-HIV assay (single round), p24 production by pNL43-transfected cells (ELISA); assay type: cell-based; details: p24 in supernatant of NL43-transfected 293T cells, 72 hours; read-out: p24 50%
Method: as §2, §3

293T cells = test: Toxicity in 293T cells; assay type: cell-based, human; parameters: unit not given beside the values
Method: as §2, §3

Row | SMILES | pIC50 [1] | MTS AVG 4 (No Effect) [2] | MTS 10 μM [2] | MTS 30 μM [2] | MTS 100 μM [2] | pIC50 (HIV-1YU2) | TC50 (Luc-M7 cells) | pIC50 (HIV-1NL43 [3]) | pIC50 (HIV-1NL43 [4]) | TC50% (293T cells)
1 | CCc1ccc(OCCCCCn2ccnc2)cc1 [Compound 58] | 4.60 | 1.333 | 2 | 1 | 1 | 7.22 | 8.7 | 5.00 | 5.77 | 5
2 | O=[N+]([O-])c1c(Cl)cc(O)c2c1C1C=CCC1C(c1ccc(Br)cc1)N2 (centres unmarked) [Compound 25] | 5.00 | 1.000 | 1 | 1 | 1 |  |  | 4.75 | 4.98 | 174
3 | CCN(CC)c1ccc(C=Nc2ccc(Sc3ccc([N+](=O)[O-])cc3)cc2)cc1 [Compound 70] | 4.48 | 3.000 |  | 4 | 2 | 5.83 | 92.5 | 4.48 | 4.17 | 135
4 | O=C(O)C(S)Cc1ccc(Cl)cc1 (centres unmarked) [Compound 47] | 4.43 | 2.000 | 4 | 1 | 1 |  |  | 4.47 | 4.61 | 202
5 | COc1ccc(NS(=O)(=O)c2ccc(Br)cc2)cc1OC [Compound 14] | 5.00 | 1.667 | 2 | 1 | 2 |  |  | < 4.12 | 4.20 | 102
6 | Cc1nc2ccccc2n1Cc1ccc(Br)cc1 [Compound 18] | 4.68 | 1.000 | 1 | 1 | 1 |  |  | 4.36 | 5.74 | 9.1
7 | Cc1ccc(S(=O)(=O)NN=Cc2cc(Br)cc(Br)c2O)cc1 [Compound 73] | 4.82 | 3.000 | 4 | 3 | 2 |  |  | 4.49 | 4.15 | 178
